Like-named read-outs stand apart in the source and are kept apart here.
Experiments:
human DHFR (hDHFR) = details: relative to TMP; cited from earlier work
[1] = molecular target: T1, recombinant human DHFR enzyme (Homo sapiens, UniProt P00374); test: Dihydrofolate reductase (DHFR) inhibition assay; format: biochemical; details: pH 7.5, 22 °C, absorbance 340 nm
T1 construct: purchased
T1 sequence (P00374 1-187): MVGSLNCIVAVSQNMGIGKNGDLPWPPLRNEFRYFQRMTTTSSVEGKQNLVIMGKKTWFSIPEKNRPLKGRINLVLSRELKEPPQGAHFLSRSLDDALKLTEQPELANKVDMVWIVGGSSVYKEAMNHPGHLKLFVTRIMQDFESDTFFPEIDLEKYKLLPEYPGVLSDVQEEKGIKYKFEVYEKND
Protocol: The procedure for detection of DHFR activity inhibition included preparation of a test mixture in a 1.0 mL quartz cuvette for the spectrophotometric method. Assay buffer—1× for DHFR (pH 7.5) and 1.5 × 10^−3 units of DHFR were added to the appropriate tube and thoroughly mixed. […] After mixing accurately, the reaction was initiated by adding 10 mM dihydrofolic acid (5 µL for each reaction) and a kinetics program was immediately started. The changes in absorbance (ΔOD/ min) were measured by the spectrophotometer Specord 200Plus (Analytikjena, Germany) at 340 nm and 22 °C, and the kinetic program (reading every 15 s for 2.5 min) according to the instructions supplied with the set and recommended by the producer.

[2] = test system: poly(dG-dC)2 (DNA, polymer) GC; test: ethidium bromide displacement fluorescence; details: Na+ 1 M; 0.1 M Tris pH 8.0, room temperature; ethidium displaced; apparent
T4 coliphage DNA [3] = test: Ethidium displacement assay, DNA-binding constants; details: apparent association constant
Protocol: (§1) The fluorescence of DNA solutions (calf thymus DNA, T4 coliphage DNA, poly(dA-dT)2, and poly(dG-dC)2 with the investigated compound (final concentrations 10, 50, 100 µM) was measured by the fluorescence spectrophotometer Infinite M200 TECAN at room temperature according to the procedure described above. Then, the concentration, which reduced fluorescence to 50% was determined for each compound. The data points of fluorescence intensity were fitted to the theoretical curves, with one or two different iterative nonlinear least squares computer routines. The apparent binding constant was calculated from KEtBr [EtBr] = Kapp [drug], where [drug] = the concentration of the tested compound at 50% reduction of fluorescence and KEtBr and [EtBr] are known. TMP and MTX were also investigated.

calf thymus DNA [4] = test: Ethidium displacement assay, DNA-binding constants; details: apparent association constant
Protocol: as §1

poly(dA-dT)2 [5] = test: Ethidium displacement assay, DNA-binding constants; details: apparent association constant
Protocol: as §1

poly(dG-dC)2 [6] = test: Ethidium displacement assay, DNA-binding constants; details: apparent association constant
Protocol: as §1

[7] = test system: poly(dA-dT)2 (DNA, polymer) AT; test: ethidium bromide displacement fluorescence; details: Na+ 1 M; 0.1 M Tris pH 8.0, room temperature; ethidium displaced; apparent
pBR322 plasmid [8] = test: Ethidium bromide assay, DNA-binding effects on plasmid pBR322; details: for Decrease of Fluorescence: 10 μM compound, plasmid pBR322 with ethidium bromide, 25 °C 30 min, % fluorescence relative to controls (no drug = 100%); for Binding to DNA (pBR322 plasmid), in words: ethidium bromide assay
Protocol: Each well of a 96-well plate was loaded with Tris buffer containing ethidium bromide (0.1 M Tris, 1 M NaCl, pH 8.0, 0.5 mM EtBr final concentration, 100 μL). […] Fluorescence readings are reported as % fluorescence relative to the controls.

DHFR = test system: DHFR; parameters: method as in PMID 30991189; details: cited from earlier work
poly(dG-dC)2 [9] = test system: poly(dG-dC)2; parameters: method as in PMID 2540332; details: KEtBr, known constant of ethidium bromide; cited from earlier work
calf thymus DNA [10] = test system: calf thymus DNA; parameters: method as in PMID 2540332; details: KEtBr, known constant of ethidium bromide; cited from earlier work
poly(dA-dT)2 [11] = test system: poly(dA-dT)2; parameters: method as in PMID 2540332; details: KEtBr, known constant of ethidium bromide; cited from earlier work
T4 coliphage DNA [12] = test system: T4 coliphage DNA; parameters: method as in PMID 2540332; details: KEtBr, known constant of ethidium bromide; cited from earlier work
hDHFR = test system: hDHFR; parameters: method as in PMID 28152430; details: Wang's compounds; read-out: IC50 (Figure 1); cited from earlier work
pBR322 plasmid [13] = test system: pBR322 plasmid; parameters: method as in PMID 27008800; details: same conditions; cited from earlier work
[14] = Sabry's compounds, read-out: IC50 (Figure 1)
[15] = read-out: DHFR inhibitory potency IC50

Row | Compound | IC50 [1] [µM] | Kapp [2] | Kapp T4 DNA (T4 coliphage DNA [3]) [M⁻¹] | Kapp Calf Thymus DNA (calf thymus DNA [4]) [M⁻¹] | Kapp Poly (dA-dT)2 (poly(dA-dT)2 [5]) [M⁻¹] | Kapp Poly (dG-dC)2 (poly(dG-dC)2 [6]) [M⁻¹] | Kapp [7] | Decrease of Fluorescence (pBR322 plasmid [8]) [%] | further results
1 | CCc1nc(N)nc(N)c1C#CCc1cc(OC)c(OC)c(OC)c1 [C] | – | – | – | – | – | – | – | – | potency greater than TMP (human DHFR (hDHFR)): 3500 fold
2 | COc1cc(C(=O)Nc2cnc(N)nc2)cc(OC)c1OC [Compound 1, N-(2-Aminopyrimidin-5-yl)-3,4,5-Trimethoxybenzamide] | 21.8 | 1.3 ± 0.2 × 10^5 M^-1 | 290000 | 240000 | 1.17e+06 | 130000 | 11.7 ± 0.2 × 10^5 M^-1 | 71.43 | –
3 | COc1cc(CC(=O)Nc2cnc(N)nc2)cc(OC)c1OC [Compound 2, N-(2-Aminopyrimidin-5-yl)-2-(3,4,5-Trimethoxyphenyl)Acetamide] | 0.99 | 0.8 ± 0.2 × 10^5 M^-1 | 110000 | 440000 | 390000 | 80000 | 3.9 ± 0.2 × 10^5 M^-1 | 45.18 | –
4 | COc1cc(CCC(=O)Nc2cnc(N)nc2)cc(OC)c1OC [Compound 3, N-(2-Aminopyrimidin-5-yl)-3-(3,4,5-Trimethoxyphenyl)Propanamide] | – | 0.5 ± 0.2 × 10^5 M^-1 | 780000 | 370000 | 360000 | 50000 | 3.6 ± 0.2 × 10^5 M^-1 | 69.92 | –
5 | COc1cc(C(=O)Nc2ccc(N)cc2)cc(OC)c1OC [Compound 4, N-(4-Aminophenyl)-3,4,5-Trimethoxybenzamide] | 1.02 | 1.6 ± 0.2 × 10^5 M^-1 | 390000 | 590000 | 790000 | 160000 | 7.9 ± 0.2 × 10^5 M^-1 | 80.43 | –
6 | COc1cc(CC(=O)Nc2ccc(N)cc2)cc(OC)c1OC [Compound 5, N-(4-Aminophenyl)-2-(3,4,5 Trimethoxyphenyl)Acetamide] | 15.9 | 3.0 ± 0.2 × 10^5 M^-1 | 680000 | 520000 | 1.4e+06 | 300000 | 14 ± 0.2 × 10^5 M^-1 | 69.17 | –
7 | COc1cc(CCC(=O)Nc2ccc(N)cc2)cc(OC)c1OC [Compound 6, N-(4-Aminophenyl)-3-(3,4,5-Trimethoxyphenyl)Propanamide] | 15.1 | 1.1 ± 0.2 × 10^5 M^-1 | 90000 | 460000 | 420000 | 110000 | 4.2 ± 0.2 × 10^5 M^-1 | 71.43 | –
8 | COc1ccc(C(=O)Nc2ccc3nc(SC)n(-c4ccc(OC)cc4)c(=O)c3c2)cc1 [D] | – | – | – | – | – | – | – | – | IC50 (DHFR; [14]): 200 µM; IC50 (DHFR; [15]): 0.2 µM
9 | COc1ccc(-n2c(SC)nc3ccc(NC(=O)C4CCCS4)cc3c2=O)cc1 (stereo not drawn) [E] | – | – | – | – | – | – | – | – | IC50 (DHFR; [14]): 200 µM
10 | CC[n+]1c(-c2ccccc2)c2cc(N)ccc2c2ccc(N)cc21 [EtBr, Ethidium bromide] | – | – | – | – | – | – | – | – | Kapp Poly (dG-dC)2 (poly(dG-dC)2 [9]): 9.9e+06 M⁻¹; Kapp Calf Thymus DNA (calf thymus DNA [10]): 1e+07 M⁻¹; Kapp Poly (dA-dT)2 (poly(dA-dT)2 [11]): 95 ^b* × 10^5 M^−1; Kapp T4 DNA (T4 coliphage DNA [12]): 1e+07 M⁻¹
11 | COc1ccc(CCc2ccc3nc(N)nc(N)c3n2)cc1 [F] | – | – | – | – | – | – | – | – | IC50 (hDHFR): 760 µM; IC50 (DHFR; [15]): 0.2 µM
12 | COc1cccc(CCc2ccc3nc(N)nc(N)c3n2)c1 [G] | – | – | – | – | – | – | – | – | IC50 (hDHFR): 450 µM
13 | COc1cc(CCc2ccc3nc(N)nc(N)c3n2)cc(OC)c1OC [H] | – | – | – | – | – | – | – | – | IC50 (hDHFR): 290 µM
14 | CN(Cc1cnc2nc(N)nc(N)c2n1)c1ccc(C(=O)N[C@@H](CCC(=O)O)C(=O)O)cc1 [MTX, methotrexate, reference compound] | – | – | – | – | – | – | – | 100 | IC50 (DHFR; [15]): […]; Binding to DNA (pBR322 plasmid), in words (pBR322 plasmid [8]): do not bind to DNA
15 | Cn1cc(NC(=O)c2cc(NC(=O)CN=C(N)N)cn2C)cc1C(=O)NCCC(=N)N [NT, netropsin, reference compound] | – | 250000 M⁻¹ | 830000 | 870000 | 8.75e+07 | 250000 | 8.75e+07 M⁻¹ | 74 | DNA-binding effect (fluorescence) (pBR322 plasmid [13]): 74%
16 | COc1cc(Cc2cnc(N)nc2N)cc(OC)c1OC [TMP, 2,4-diamino-5-(3,4,5-trimethoxybenzyl) pyrimidine, reference compound] | – | – | – | – | – | – | – | 100 | Binding to DNA (pBR322 plasmid), in words (pBR322 plasmid [8]): do not bind to DNA

Reference: publication PMC6983048 (Molecules, 2019)
